Laboratory results reported in patent US12006313B1, “7-(4-((5-(benzylideneamino)-2-thioxo-1,3,4-thiadiazol-3(2H)-yl)methyl)piperazin-1-yl)-1-cyclopropyl-6-fluoro-4-oxo-1,4-dihydroquinoline-3-carboxylic acid as an anti-inflammatory and anticancer compound” (KING FAISAL UNIVERSITY, priority 2023, dated 2024).

Tests used:
[1] = test system: human osteosarcoma cells (MG-63); assay: Assessment of cytotoxicity by SRB assay, MG-63; format: cell-based; conditions: MG-63 cells, 72 h
Method: (§1) The human prostate cancer cells (PC3) and human osteosarcoma cells (MG-63) were obtained from Nawah Scientific Inc. (Mokatam, Cairo, Egypt) and cultured in DMEM (Dulbecco's modified eagle's medium), Gibco, USA, supplemented with fetal bovine serum (FBS) at a concentration of 10% and 100 U/mL of penicillin and streptomycin (PS). The Cells were incubated at 37° C. in a humidified environment that contained 5% CO2.
(§2) Cells were seeded in 96-well plates as aliquots of 100 μL cell suspension and incubated in a complete media for 24 h. afterward, cells were treated with N′-(1-naphthoyloxy)-2-(benzo[d]thiazol-2-yl)acetimidamide at diverse concentrations ranging from 0.01 μM to 100 μM for 72 h. Then, cells were fixed at 4° C. for one hour with 150 μL of 10% trichloroacetic acid (TCA). After washing the cells five times with distilled water, 70 μL of sulforhodamine (SRB) solution (0.4% w/v) was added and incubated for 10 min at room temperature in a dark place. […] Then, 150 μL of Tris pH 10.5 (10 mM) was added, and the absorbance was measured at 540 nm using a BMG LABTECH®-FLUOstar Omega microplate reader (Ortenberg, Germany). Half maximal inhibitory concentrations (IC50) values were calculated for each experiment using GraphPad Prism 6 software. […]
(§3) The inhibition was calculated using the following equation: Inhibition %=100-Average Viability

[2] = test system: human prostate cancer cells (PC3); assay: Assessment of cytotoxicity by SRB assay, PC3; format: cell-based; conditions: 72 h
Method: as §1, §2, §3

[3] = target: Bovine Serum Albumin (Bos taurus, UniProt P02769); assay: Bovine Serum Albumin assay (BSA), inhibition of protein denaturation; format: biochemical; conditions: 0.4% w/v BSA, pH 6.4, 72° C. for 10 minutes, turbidity at 660 nm
Sequence of Bovine Serum Albumin (P02769 25-607): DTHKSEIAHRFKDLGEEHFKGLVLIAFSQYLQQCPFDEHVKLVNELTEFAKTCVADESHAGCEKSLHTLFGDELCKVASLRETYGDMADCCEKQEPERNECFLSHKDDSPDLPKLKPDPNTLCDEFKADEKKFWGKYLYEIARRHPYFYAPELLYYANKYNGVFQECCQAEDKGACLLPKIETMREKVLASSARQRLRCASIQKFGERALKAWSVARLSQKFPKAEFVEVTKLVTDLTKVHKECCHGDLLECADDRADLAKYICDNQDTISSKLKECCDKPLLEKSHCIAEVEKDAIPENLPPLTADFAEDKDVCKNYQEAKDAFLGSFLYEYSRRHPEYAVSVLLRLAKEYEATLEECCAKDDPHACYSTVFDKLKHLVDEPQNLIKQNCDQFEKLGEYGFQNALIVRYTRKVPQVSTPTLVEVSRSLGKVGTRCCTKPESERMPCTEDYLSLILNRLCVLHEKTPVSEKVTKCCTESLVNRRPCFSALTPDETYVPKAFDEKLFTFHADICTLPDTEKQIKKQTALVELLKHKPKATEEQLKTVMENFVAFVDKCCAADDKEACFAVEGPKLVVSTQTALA
Method: In vitro-inflammatory activities of the tested samples were determined using a modified method of the BSA assay reported by Williams et al. BSA solution (0.4%, w/v) was prepared in Tris Buffered Saline. The pH was adjusted to 6.4 with glacial acetic acid. Different dilutions of 20, 40, 60, 80, and 100 μg/mL of the stock solutions were added to test tubes containing 1 mL of 0.4%, w/v BSA buffer solution. Both negative (solvent) and positive (aspirin) controls were assayed in a similar manner. The solutions were then heated in a water bath at 72° C. for 10 minutes and cooled for 20 minutes under laboratory conditions. The turbidity of the solutions (level of protein precipitation) was measured at 660 nm in Spectrophotometer (V-770 UV-Visible/NIR Spectrophotometer).
The percentage inhibition of precipitation (protein denaturation) was determined relative to the negative control using the following equation:
[formula] % Anti-Denaturation Activity=% Inhibition of Protein Denaturation=% Anti-inflammatory Activity

O=C(O)c1cn(C2CC2)c2cc(N3CCN(Cn4nc(/N=C/c5ccccc5)sc4=S)CC3)c(F)cc2c1=O [7-(4-((5-(benzylideneamino)-2-thioxo-1,3,4-thiadiazol-3(2H)-yl)methyl)piperazin-1-yl)-1-cyclopropyl-6-fluoro-4-oxo-1,4-dihydroquinoline-3-carboxylic acid]
antiproliferative activity [1]: excellent antiproliferative activities | melting point: 241 to 243 °C | antiproliferative activity [2]: excellent antiproliferative activities | in vitro anti-inflammatory activity (inhibition of protein denaturation) [3]: considerable anti-inflammatory effect
